“Also recorded” adds a separate entry of the source. Square brackets hold non-standard residues; d marks the D form. Ends that are not written are not given here. Phe(4-NH2) = Nc1ccc(C[C@H](N)C(=O)O)cc1
Columns and labels:
[1] = test system: Human coronary artery smooth muscle cells; experiment: Inhibition of human smooth muscle cell proliferation (cell counts, growth rate vs wells without peptide); assay type: cell-based; details: for % Control Proliferation Day 1 vs Day 4 / % Control Proliferation Day 1 vs Day 7: percentage of the control growth rate, values below 100 = inhibition, peptides 0.1-10 μg/ml, concentration not given; for Effect on proliferation of human smooth muscle cells (in words): compared with wells that did not contain peptide
smooth muscle cell = details: Strawn et al., Hypertension 33:207-211 (1999); cited from earlier work
[2] = test system: smooth muscle cell growth after vascular injury; details: Strawn et al., Hypertension 33:207-211 (1999); cited from earlier work
AT2 receptor = details: cited from earlier work
[3] = Unspecified earlier test of effectiveness of AII fragments; details: test not described

Substance | % Control Proliferation Day 1 vs Day 4 [1] [%] | % Control Proliferation Day 1 vs Day 7 [1] [%] | Effect on proliferation of human smooth muscle cells (in words) [1] | further results
A(1-7): AII residues 1-7, SEQ ID NO:4 (DRVYIHP) [reference compound] | 73.3 | 63.3 | – | Smooth muscle cell proliferation (in words) (smooth muscle cell): inhibit smooth muscle cell proliferation; Smooth muscle cell growth after vascular injury (in words) [2]: reduce smooth muscle cell growth after vascular injury
Arg—Val—Tyr—Ile—His—Pro (RVYIHP) [A(2-7)] | 82.4 | 64.8 | inhibited smooth muscle cell proliferation | –
Asp—Arg—Val—Tyr—Ile (DRVYI) [A(1-5)] | 85.9 | 83.1 | – | –
Asp—Arg—Val—Tyr—Ile—His—Pro—Phe (DRVYIHPF) [AII, reference compound] | 121.4 | 154.5 | increased the proliferation | Affinity for AT2 relative to AT1 (AT2 receptor; higher affinity for AT2 than AT1, Speth and Kim 1990): 100 times
Asp—Arg—Val—Tyr—Ile—Xaa—Pro—Phe (DRVYI[Phe(4-NH2)]PF) [p-aminophenylalanine6-AII] | – | – | – | Binding characteristics (in words) (AT2 receptor; experimental models of Catalioto 1994, Bryson 1992): comparable to AT2 antagonists
DRKYIHP [Peptide 5GD] | 86.6 | 80.1 | inhibited smooth muscle cell proliferation | –
DRP(OH)AIHP [Peptide 8GD] | 72.6 | 66.4 | inhibited smooth muscle cell proliferation | –
DRVAIHP [Peptide 1GD] | 55.4 | 54.2 | inhibited smooth muscle cell proliferation | –
DRVYIH [A(1-6)] | 76.5 | 61.1 | inhibited smooth muscle cell proliferation | –
His—Pro—Phe (HPF) [AII(6-8)] | – | – | – | Effectiveness (in words) [3]: not to be effective
Ile—His—Pro—Phe (IHPF) [A(5-8)] | 63.1 | 55.0 | inhibited smooth muscle cell proliferation | –
Tyr—Ile—His—Pro—Phe (YIHPF) [AII(4-8)] | – | – | – | Effectiveness (in words) [3]: not to be effective; also recorded: ineffective
Val—Tyr—Ile—His—Pro (VYIHP) [A(3-7)] | 80.5 | 70.0 | inhibited smooth muscle cell proliferation | –
Val—Tyr—Ile—His—Pro—Phe (VYIHPF) [A(3-8)] | 74.7 | 61.7 | inhibited smooth muscle cell proliferation | –

From patent publication US20020049162A1, “Methods for inhibiting smooth muscle cell proliferation” (priority 2000, published 2002)
